# Source: patent publication US20240368125A1, “NOVEL PYRAZINYL-TRIAZOLE COMPOUNDS AS PESTICIDES” (Bayer Aktiengesellschaft, priority 2021, published 2024)
# What was measured:
# Assay type in all cases: in vivo
# [1] = test system: Rhipicephalus (Boophilus) microplus larvae (strain Parkhurst, resistant against synthetic pyrethroids); assay: Rhipicephalus (Boophilus) microplus in-vitro contact test, larval cattle tick; details: 1 μg/cm^2 (=100 g/ha), after 48 hours; for pest or weed control at 1 µg/cm2: Rhipicephalus microplus, read-out: efficacy (larvae dead or moribund)
# Method: Rhipicephalus (Boophilus) Microplus—In-Vitro Contact Tests Larval Cattle Tick (Strain Parkhurst, Resistant Against Synthetic Pyrethroids
# (§1) 9 mg compound is solved in 1 mL acetone and diluted with acetone to the desired concentration. 250 μL of the test solution is filled in 25 mL glass test tubes and homogeneously distributed on the inner walls by rotation and tilting on a shaking device (2 h at 30 rpm). With a compound concentration of 900 ppm, an inner surface of 44.7 cm^2 and a homogeneous distribution, a dose of 5 μg/cm^2 is achieved.
# After the solvent has evaporated, each test tube is filled with 20-50 cattle tick larvae (Rhipicephalus microplus), closed with a perforated lid and incubated in a horizontal position at 85% relative humidity and 27° C. in an incubator. After 48 hours efficacy is determined. The larvae are patted on the ground of the tubes and negative geotactic behavior is recorded.
# [2] = test system: adult cat fleas (Ctenocephalides felis); assay: Ctenocephalides felis in-vitro contact test, adult cat flea; details: Ctenocephalides felis; 1 μg/cm^2 (=100 g/ha), after 48 hours; read-out: efficacy (fleas dead or moribund)
# Method: Ctenocephalides Felis—In-Vitro Contact Tests Adult Cat Flea
# as §1
# (§2) After the solvent has evaporated, each test tube is filled with 5-10 adult cat fleas (Ctenocephalides felis), closed with a perforated lid and incubated in a lying position at room temperature and relative humidity. After 48 hours efficacy is determined. The fleas are patted on the ground of the tubes and are incubated on a heating plate at 45-50° C. for at most 5 minutes. Immotile or uncoordinated moving fleas, which are not able to escape the heat by climbing upwards, are marked as dead or moribund.
# An efficacy of 100% means all fleas are dead or moribund; 0% means no fleas are dead or moribund.
# [3] = test system: adult brown dog ticks (Rhipicephalus sanguineus); assay: Rhipicephalus sanguineus in-vitro contact test, adult brown dog ticks; details: Rhipicephalus sanguineus; 1 μg/cm^2 (=100 g/ha), after 48 hours; read-out: efficacy (ticks dead or moribund)
# Method: Rhipicephalus sanguineus—In-Vitro Contact Tests with Adult Brown Dog Ticks
# as §1
# as §2, with “brown dog ticks (Rhipicephalus sanguineus),” for “cat fleas (Ctenocephalides felis),”, “ticks” for “fleas”, “ticks,” for “fleas,”
# An efficacy of 100% means all ticks are dead or moribund; 0% means no ticks are dead or moribund.
# [4] = test system: green peach aphid (Myzus persicae); assay: Myzus persicae spray test (MYZUPE); details: 120 h; for mortality at 100 g/ha: in Brassica rapa, foliar; for Emax at 4 g/ha / Emax at 20 g/ha / Emax at 100 g/ha: MYZUPE, 5 dat, read-out: % Efficacy; for Emax at 4 g/ha: 4 g ai/ha; for Emax at 20 g/ha: 20 g ai/ha; for Emax at 100 g/ha: 100 g ai/ha
# Method: Myzus persicae—Spray Test
# (§3) Solvent: 78.0 parts by weight acetone • 1.5 parts by weight dimethylformamide
# (§4) Emulsifier: alkylarylpolyglycol ether
# (§5) To produce a suitable preparation of active compound, 1 part by weight of active compound is mixed with the stated amount of solvents and is diluted with water, containing an emulsifier concentration of 1000 ppm, to the desired concentration. Further test concentrations are prepared by dilution with emulsifier containing water.
# Chinese cabbage (Brassica pekinensis) leaf disks infected with all instars of the green peach aphid (Myzus persicae), are sprayed with a preparation of the active ingredient of the desired concentration.
# After 5 days mortality in % is determined. 100% means all aphids have been killed and 0% means none of the aphids have been killed.
# Myzus persicae—Spray Test (MYZUPE
# After the specified period of time, mortality in % is determined. 100% means all aphids have been killed and 0% means none of the aphids have been killed.
# [5] = test system: larvae of the southern green stink bug (Nezara viridula); assay: Nezara viridula spray test; details: for mortality at 500 g/ha: Nezara viridula, in Hordeum vulgare, 96 h; for mortality: 500 g/ha, barley plants, after 4 days
# Method: Nezara viridula—Spray Test
# (§6) Solvent: 78.0 parts by weight of acetone • • 1.5 parts by weight of dimethylformamide
# as §4
# as §5, with “solvent,” for “solvents”, “and the concentrate” for “and”
# Barley plants (Hordeum vulgare) are sprayed with a test solution containing the desired concentration of the active ingredient and are infested with larvae of the southern green stink bug (Nezara viridula).
# After 4 days mortality in % is determined. 100% means all the stink bugs have been killed; 0% means none of the stink bugs have been killed.
# [6] = test system: fall armyworm larvae (Spodoptera frugiperda); assay: Spodoptera frugiperda spray test (SPODFR); details: 168 h; for mortality at 100 g/ha: in Zea mays
# Method: Spodoptera frugiperda—Spray Test
# as §3, §4, §5
# Maize (Zea mays) leaf sections are sprayed with a preparation of the active ingredient of the desired concentration. Once dry, the leaf sections are infested with fall armyworm larvae (Spodoptera frugiperda).
# After 7 days mortality in % is determined. 100% means all caterpillars have been killed and 0% means none of the caterpillars have been killed.
# Spodoptera frugiperda—Spray Test (SPODFR
# After the specified period of time, mortality in % is determined. 100% means all caterpillars have been killed and 0% means none of the caterpillars have been killed.
# [7] = test system: brown planthopper (Nilaparvata lugens); assay: Nilaparvata lugens spray test; details: for mortality at 500 g/ha: Nilaparvata lugens, in Oryza sativa, 96 h; for mortality: 500 g/ha, rice plants, after 4 days
# Method: Nilaparvata lugens—Spray Test
# as §6, §4, §5
# Rice plants (Oryza sativa) are sprayed with a preparation of the active ingredient of the desired concentration and the plants are infested with the brown planthopper (Nilaparvata lugens).
# After 4 days mortality in % is determined. 100% means all planthoppers have been killed and 0% means none of the planthoppers have been killed.
# [8] = test system: larvae of the banded cucumber beetle (Diabrotica balteata); assay: Diabrotica balteata spray test; details: 100 g/ha (=32 μg/well), wheat seeds, after 7 days; for pest or weed control at 32 µg/disc, 100 g/ha: Diabrotica balteata, 168 h, read-out: efficacy (seedlings grown)
# Method: Diabrotica balteata—Spray Test
# as §6, §4
# as §5, with “solvent,” for “solvents”, “and the concentrate” for “and”
# Soaked wheat seeds (Triticum aestivum) are placed in a multiple well plate filled with agar and some water and are incubated for 1 day to germinate (5 seeds per well). The germinated wheat seeds are sprayed with a test solution containing the desired concentration of the active ingredient. Afterwards each unit is infected with 10-20 larvae of the banded cucumber beetle (Diabrotica balteata).
# After 7 days efficacy in % is determined. 100% means all the seedlings have grown up like in the untreated, uninfected control; 0% means none of the seedlings have grown.
Compound,pest or weed control at 1 µg/cm2 [1] [%],"pest or weed control at 1 µg/cm2, 100 g/ha [3] [%]",mortality at 100 g/ha [4] [%],mortality at 500 g/ha [5] [%],mortality at 100 g/ha [6] [%],mortality at 500 g/ha [7] [%],"pest or weed control at 32 µg/disc, 100 g/ha [8] [%]",also measured
CNC(=O)c1cnc(-n2nc(C)nc2[C@H](C)NC(=O)c2cc(C(F)(F)F)cc(C(F)(F)F)c2)cn1 [Example I-011],100,100,90,100,100,–,–,pest or weed control at 1 µg/cm2 [2]: 100%
Cc1nc([C@H](C)NC(=O)c2cc(C(F)(F)F)cc(C(F)(F)F)c2)n(-c2cnc(C(N)=O)cn2)n1 [Example I-012],100,100,100,100,100,100,–,–
Cc1nc([C@H](C)NC(=O)c2cc(C(F)(F)F)cc(C(F)(F)F)c2)n(-c2cnc(C(=O)NC3CC3)cn2)n1 [Example I-014],100,100,90,90,100,100,–,–
C[C@H](NC(=O)c1cc(OC(F)(F)F)cc(S(C)(=O)=O)c1)c1ncnn1-c1cnc(C(=O)N(C)C)cn1 [Example I-017],100,100,100,100,–,100,100,pest or weed control at 1 µg/cm2 [2]: 100%; Emax at 4 g/ha [4]: 70%; Emax at 20 g/ha [4]: 90%; Emax at 100 g/ha [4]: 100%
C[C@H](NC(=O)c1cc(OC(F)(F)F)cc(S(C)(=O)=O)c1)c1ncnn1-c1cnc(C(=O)NC2CC2)cn1 [Example I-020],100,–,100,100,–,100,100,–
C[C@H](NC(=O)c1cc(OC(F)(F)F)cc(OC(F)(F)F)c1)c1ncnn1-c1cnc(C(=O)N(C)C2CC2)cn1 [Example I-026],100,100,–,100,100,100,100,pest or weed control at 1 µg/cm2 [2]: 100%
C[C@H](NC(=O)c1cc(OC(F)(F)F)cc(S(C)(=O)=O)c1)c1ncnn1-c1cnc(C(N)=O)cn1 [Example I-028],90,–,90,100,100,–,100,–
Cc1nc([C@H](C)NC(=O)c2cc(OC(F)(F)F)cc(OC(F)(F)F)c2)n(-c2cnc(C(=O)N(C)C3CC3)cn2)n1 [Example I-031],100,–,–,–,100,90,–,pest or weed control at 1 µg/cm2 [2]: 80%
"Cc1nc([C@H](C)NC(=O)c2cc(OC(F)(F)F)cc(C3CC3)c2)n(-c2cnc(C(=O)N(C)C3CC3)cn2)n1 [Example I-032, N-Cyclopropyl-5-(5-{(1S)-1-[3-cyclopropyl-5-(trifluoromethoxy)benzamido]ethyl}-3-methyl-1H-1,2,4-triazol-1-yl)-N-methylpyrazine-2-carboxamide]",100,80,90,–,100,100,–,pest or weed control at 1 µg/cm2 [2]: 100%
Cc1nc([C@H](C)NC(=O)c2cc(OC(F)(F)F)cc(OC(F)(F)F)c2)n(-c2cnc(C(N)=O)cn2)n1 [Example I-033],–,–,–,100,100,–,100,–
CNC(=O)c1cnc(-n2nc(C)nc2[C@H](C)NC(=O)c2cc(OC(F)(F)F)cc(OC(F)(F)F)c2)cn1 [Example I-034],100,80,–,100,100,–,80,–
Cc1nc([C@H](C)NC(=O)c2cc(C(F)(F)F)cc(S(C)(=O)=O)c2)n(-c2cnc(C(N)=O)cn2)n1 [Example I-051],–,–,–,–,–,–,–,efficacy (larvae dead or moribund) [1]: 100%; mortality [5]: 90%
C[C@H](NC(=O)c1cc(F)cc(OC(F)(F)F)c1)c1ncnn1-c1cnc(C(N)=O)cn1 [Example I-068],–,–,–,–,–,–,–,mortality [5]: 90%
Cc1nc([C@H](C)NC(=O)c2cc(F)cc(OC(F)(F)F)c2)n(-c2cnc(C(N)=O)cn2)n1 [Example I-069],–,–,–,–,–,–,–,mortality [7]: 90%
C[C@H](NC(=O)c1cc(C(F)F)cc(C(F)F)c1)c1nc(C2CC2)nn1-c1cnc(C(N)=O)cn1 [Example I-071],–,–,–,–,–,–,–,efficacy (seedlings grown) [8]: 100%; mortality [5]: 90%; mortality [7]: 90%
C[C@H](NC(=O)c1cc(OC(F)(F)F)cc(C2(C#N)CC2)c1)c1nc(C2CC2)nn1-c1cnc(C(N)=O)cn1 [Example I-072],–,–,–,–,–,–,–,efficacy (seedlings grown) [8]: 100%; mortality [5]: 90%; mortality [7]: 90%
"C[C@H](NC(=O)c1cc(C(F)F)nc(C(F)F)c1)c1nc(C2CC2)nn1-c1cnc(C(N)=O)cn1 [Example I-094, 5-[5-[(1S)-1-[[2,6-bis(difluoromethyl)pyridine-4-carbonyl]amino]ethyl]-3-cyclopropyl-1,2,4-triazol-1-yl]pyrazine-2-carboxamide]",–,–,–,100,83,–,100,–
"C=C(CC)c1ccc(C2C=CC=C2[C@H](C)CC(=C)c2cc(C)cc(C(C)(C)C)c2)cc1 (stereo partly shown) [I-038 Known from WO2019206799, reference compound]",–,–,–,–,–,–,–,"Emax at 4 g/ha [4]: 0%; Emax at 20 g/ha [4]: 70%; Emax at 100 g/ha [4]: 100%; Emax at 4 g/ha ([6]; SPODFR, 4 g ai/ha, 7 dat, read-out: % Efficacy): 0%; Emax at 20 g/ha ([6]; SPODFR, 20 g ai/ha, 7 dat, read-out: % Efficacy): 100%; Emax at 100 g/ha ([6]; SPODFR, 100 g ai/ha, 7 dat, read-out: % Efficacy): 100%"
